How the values were obtained:
[1] = test system: IA-LM (Non-Small Cell Lung Carcinoma); test: combination Emax (second highest fraction inhibited in the dose matrix, 72 h); higher = more inhibition; extreme values may be limits of the assay
Method in brief: (§1)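 Bliss excess equals the observed combination effect minus the expected value EA + EB − EA·EB, where EA and EB are the effects of each agent alone. Combination Emax is the second-highest inhibition within the matrix. Inhibition was scaled from CellTiter-Glo 2.0 luminescence, with 0 set by vehicle wells and 1 by blank wells, after 72 hours of two-drug dosing of cells plated in 1536-well plates.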

[2] = test system: TUR (Acute Myeloid Leukemia); test: as above
Method in brief: as §1

[3] = test system: NCI-H1341 (Small Cell Lung Carcinoma); test: as above
Method in brief: as §1

GAK (Melanoma) = test: Bliss excess, mean over the matrix (fraction); higher = more synergy
Method in brief: as §1

[4] = test system: RCC-JW (Kidney Carcinoma); test: as above
Method in brief: as §1

[5] = test system: OAW-28 (Ovarian Carcinoma); test: as above
Method in brief: as §1

[6] = test system: COR-L88 (Small Cell Lung Carcinoma); test: as above
Method in brief: as §1

[7] = test system: BxPC-3 (Pancreatic Carcinoma); test: as above
Method in brief: as §1

[8] = test system: LS-1034 (Colorectal Carcinoma); test: as above
Method in brief: as §1

[9] = test system: P30-OHK (B-Lymphoblastic Leukemia); test: as above
Method in brief: as §1

[10] = test system: SiHa (Cervical Carcinoma); test: as above
Method in brief: as §1

[11] = test system: ZR-75-30 (Breast Carcinoma); test: as above
Method in brief: as §1

[12] = test system: P32-ISH (Burkitt's Lymphoma); test: as above
Method in brief: as §1

[13] = test system: NAMALWA (Burkitt's Lymphoma); test: as above
Method in brief: as §1

[14] = test system: SNU-407 (Colorectal Carcinoma); test: as above
Method in brief: as §1

[15] = test system: SCC-4 (Oral Cavity Carcinoma); test: as above
Method in brief: as §1

[16] = test system: MM1S (Plasma Cell Myeloma); test: as above
Method in brief: as §1

[17] = test system: MOLP-8 (Plasma Cell Myeloma); test: as above
Method in brief: as §1

[18] = test system: NCI-H1963 (Small Cell Lung Carcinoma); test: as above
Method in brief: as §1

| Structure (SMILES) | combination Emax [1] | combination Emax [2] | combination Emax [3] | Bliss excess (GAK (Melanoma)) | Bliss excess [4] | Bliss excess [5] | Bliss excess [6] | Bliss excess [7] | Bliss excess [8] | Bliss excess [9] | Bliss excess [10] | Bliss excess [11] | Bliss excess [12] | Bliss excess [13] | Bliss excess [14] | Bliss excess [15] | Bliss excess [16] | Bliss excess [17] | Bliss excess [18] |
| --- | --- | --- | --- | --- | --- | --- | --- | --- | --- | --- | --- | --- | --- | --- | --- | --- | --- | --- | --- |
| CN(C)CCCOc1ccc(-c2ccc3ncc4c(c3c2)n(C2CCOCC2)c(=O)n4C)cn1 [AZD0156] + O=C(c1cc(Cc2n[nH]c(=O)c3ccccc23)ccc1F)N1CCN(C(=O)C2CC2)CC1 [Olaparib] (first compound max 3 µM, partner max 3 µM) | 0.305 | 0.273 | 0.306 | 0.0131 | 0.0299 | 0.0871 | -0.193 | -0.0342 | 0.0657 | 0.262 | -0.0248 | -0.0203 | 0.211 | 0.117 | -0.0122 | 0.0057 | 0.0231 | 0.0151 |  |
| C=CCn1c(=O)c2cnc(Nc3ccc(N4CCN(C)CC4)cc3)nc2n1-c1cccc(C(C)(C)O)n1 [AZD1775] + C1CN(CCC1(C(=O)N[C@@H](CCO)C2=CC=C(C=C2)Cl)N)C3=NC=NC4=C3C=CN4 [Capivasertib] (first compound max 3 µM, partner max 3 µM) | 0.413 | 0.955 | 0.923 | -0.0395 | -0.0527 | 0.0019 | -0.0949 | -0.0227 | -0.0125 | 0.0697 | -0.0212 | -0.0501 | 0.0417 | 0.0603 | -0.027 | -0.0273 | 0.0171 | 0.0286 |  |
| COc1nnc2ccc(N3CCC(c4ccc(OCCN5CCN(C)C(=O)[C@H]5C)cc4)CC3)nn12 [AZD5153] + C=CCn1c(=O)c2cnc(Nc3ccc(N4CCN(C)CC4)cc3)nc2n1-c1cccc(C(C)(C)O)n1 [AZD1775] (first compound max 1 µM, partner max 1 µM) | 0.348 | 0.867 | 0.972 | -0.158 | -0.022 | -0.0382 | -0.0249 | -0.028 | -0.0549 | 0.0298 | -0.0583 | -0.042 | -0.0649 | -0.0633 | -0.0278 | -0.0421 | -0.0412 | -0.0204 | -0.0427 |
| COc1nnc2ccc(N3CCC(c4ccc(OCCN5CCN(C)C(=O)[C@H]5C)cc4)CC3)nn12 [AZD5153] + CC1(C)CCC(CN2CCN(c3ccc(C(=O)NS(=O)(=O)c4ccc(NCC5CCOCC5)c([N+](=O)[O-])c4)c(Oc4cnc5[nH]ccc5c4)c3)CC2)=C(c2ccc(Cl)cc2)C1 [Venetoclax] (first compound max 1 µM, 7x7, partner max 1 µM) | 0.495 | 0.458 | 0.688 | -0.0172 | -0.0551 | -0.0949 | -0.0179 | -0.0745 | -0.011 | 0.102 | -0.0986 | -0.0852 | -0.0067 | -0.0558 | -0.0217 | -0.0765 | -0.0394 | 0.0065 | 0.0782 |
| COc1nnc2ccc(N3CCC(c4ccc(OCCN5CCN(C)C(=O)[C@H]5C)cc4)CC3)nn12 [AZD5153] + CCN(CCO)CCCOc1ccc2c(Nc3cc(CC(=O)Nc4cccc(F)c4)[nH]n3)ncnc2c1 [AZD2811] (first compound max 1 µM, 7x7, partner max 1 µM) | 0.401 | 0.827 | 0.659 | -0.0273 | -0.0416 | -0.0115 | -0.0231 | -0.0244 | -0.046 | -0.0428 | 0.0047 | -0.0008 | -0.0959 | -0.0493 | -0.0476 | -0.109 | 0.106 | 0.0011 | -0.0585 |
| COc1nnc2ccc(N3CCC(c4ccc(OCCN5CCN(C)C(=O)[C@H]5C)cc4)CC3)nn12 [AZD5153] + CN(CC[C@H](CSC1=CC=CC=C1)NC2=C(C=C(C=C2)S(=O)(=O)NC(=O)C3=CC=C(C=C3)N4CCC(CC4)[C@H](C5=CC=CC=C5C6=CC=C(C=C6)Cl)O)S(=O)(=O)C(F)(F)F)CCO [AZD4320] (first compound max 1 µM, 7x7, partner max 1 µM) |  | 0.626 | 1 |  |  | 0.0297 |  |  |  | -0.0062 | 0.0846 |  | -0.0595 |  | 0.0156 |  | 0.0694 | 0.0239 | 0.0696 |
| COc1nnc2ccc(N3CCC(c4ccc(OCCN5CCN(C)C(=O)[C@H]5C)cc4)CC3)nn12 [AZD5153] + C[C@@H]1COCCN1C2=NC(=NC(=C2)C3(CC3)[S@](=N)(=O)C)C4=C5C=CNC5=NC=C4 [AZD6738] (first compound max 1 µM, 7x7, partner max 10 µM) | 0.443 | 0.984 | 0.955 | -0.0005 | 0.0051 | 0.11 | -0.0201 | -0.0013 | -0.0132 | -0.0012 | 0.101 | 0.019 | -0.0039 | -0.0799 | 0.003 | -0.0283 | 0.0719 | -0.0211 | -0.0228 |
| COc1nnc2ccc(N3CCC(c4ccc(OCCN5CCN(C)C(=O)[C@H]5C)cc4)CC3)nn12 [AZD5153] + Cc1c2c(nn1C)CSCc1cc(n(C)n1)CSc1cc(c3ccccc3c1)OCCCc1c(C(=O)O)n(C)c3c-2c(Cl)ccc13 [AZD5991] (first compound max 1 µM, 7x7, partner max 1 µM) | 0.483 | 0.998 | 0.897 | -0.0183 | -0.0078 | 0.0515 | 0.0848 | -0.015 | -0.0569 | -0.0042 | -0.0237 | 0.0034 | -0.0108 | -0.0536 | -0.0996 | -0.0208 | 0.15 | -0.0051 | 0.0125 |
| COc1nnc2ccc(N3CCC(c4ccc(OCCN5CCN(C)C(=O)[C@H]5C)cc4)CC3)nn12 [AZD5153] + Cn1cnc2c(F)c(Nc3ccc(Br)cc3Cl)c(C(=O)NOCCO)cc21 [Selumetinib] (first compound max 1 µM, 7x7, partner max 10 µM) | 0.457 | 0.744 | 0.559 | -0.0532 | 0.0214 | 0.0279 | -0.0196 | -0.0864 | 0.0264 | -0.0004 | -0.0197 | -0.0133 | -0.0417 | -0.0375 | -0.0175 | -0.0332 | 0.109 | 0.0094 | -0.0176 |
| NC1(C(=O)N[C@@H](CCO)c2ccc(Cl)cc2)CCN(c2ncnc3[nH]ccc23)CC1 [Capivasertib] + CC(=O)c1c(C)c2cnc(Nc3ccc(N4CCNCC4)cn3)nc2n(C2CCCC2)c1=O [Palbociclib] (first compound max 10 µM, 7x7, partner max 10 µM) | 0.206 | 0.876 | 0.506 | 0.0095 | 0.0347 | -0.0162 | -0.0113 | -0.0396 | -0.0157 | 0.0689 | -0.022 | -0.0173 | 0.0066 | 0.0053 | -0.0267 | -0.007 | -0.0128 | 0.0115 | -0.0584 |
| NC1(C(=O)N[C@@H](CCO)c2ccc(Cl)cc2)CCN(c2ncnc3[nH]ccc23)CC1 [Capivasertib] + CC(C)n1c(=O)n(C)c2cnc3cc(F)c(-c4ccc(OCCCN5CCCCC5)nc4)cc3c21 [AZD1390] (first compound max 10 µM, 7x7, partner max 0.3 µM) | 0.263 | 0.809 | 0.532 | -0.0397 | -0.0366 | -0.0674 | -0.0746 | -0.0361 | -0.0447 | -0.0289 | -0.046 | -0.0471 | 0.0131 | 0.0005 | -0.0261 | -0.045 | -0.0204 | -0.0032 | -0.0615 |
| NC1(C(=O)N[C@@H](CCO)c2ccc(Cl)cc2)CCN(c2ncnc3[nH]ccc23)CC1 [Capivasertib] + CCN(CCO)CCCOc1ccc2c(Nc3cc(CC(=O)Nc4cccc(F)c4)[nH]n3)ncnc2c1 [AZD2811] (first compound max 10 µM, 7x7, partner max 1 µM) | 0.304 | 0.912 | 0.655 | -0.0181 | -0.0014 | 0.0262 | -0.0738 | -0.0545 | -0.0634 | -0.044 | 0.0067 | -0.0115 | -0.021 | 0.0887 | -0.0833 | -0.0671 | 0.0257 | 0.0345 | -0.023 |
| NC1(C(=O)N[C@@H](CCO)c2ccc(Cl)cc2)CCN(c2ncnc3[nH]ccc23)CC1 [Capivasertib] + COc1nnc2ccc(N3CCC(c4ccc(OCCN5CCN(C)C(=O)[C@H]5C)cc4)CC3)nn12 [AZD5153] (first compound max 10 µM, 7x7, partner max 1 µM) | 0.317 | 1 | 0.851 | -0.0323 | 0.0516 | 0.0387 | 0.0516 | -0.0336 | 0.0201 | 0.0358 | 0.006 | -0.034 | 0.119 | -0.0058 | -0.0269 | 0.0043 | 0.0564 | 0.0092 | 0.0036 |
| CC(=O)c1c(C)c2cnc(Nc3ccc(N4CCNCC4)cn3)nc2n(C2CCCC2)c1=O [Palbociclib] + CN(CC[C@H](CSC1=CC=CC=C1)NC2=C(C=C(C=C2)S(=O)(=O)NC(=O)C3=CC=C(C=C3)N4CCC(CC4)[C@H](C5=CC=CC=C5C6=CC=C(C=C6)Cl)O)S(=O)(=O)C(F)(F)F)CCO [AZD4320] (first compound max 10 µM, 7x7, partner max 1 µM) |  | 0.381 | 0.992 |  |  | -0.004 |  |  |  | 0.0564 | -0.044 |  | 0.0075 |  | -0.0556 |  | -0.0634 | 0.0145 | 0.0164 |
| C[C@@H](c1ccc2nccn2c1)n1nnc2ncc(-c3cnn(C)c3)nc21 [Savolitinib] + CN(CC[C@H](CSC1=CC=CC=C1)NC2=C(C=C(C=C2)S(=O)(=O)NC(=O)C3=CC=C(C=C3)N4CCC(CC4)[C@H](C5=CC=CC=C5C6=CC=C(C=C6)Cl)O)S(=O)(=O)C(F)(F)F)CCO [AZD4320] (first compound max 1 µM, 7x7, partner max 1 µM) |  | 0.135 | 1 |  |  | -0.006 |  |  |  | -0.0183 | -0.0396 |  | -0.022 |  | -0.319 |  | -0.034 | 0.0014 | 0.0022 |

Reference: the supplement of paper PMC11061612
